Source: PMC6487070, “Molecular transport through primary human small intestinal monolayers by culture on a collagen scaffold with a gradient of chemical cross-linking” (Journal of Biological Engineering, 2019)
Read-outs that look alike come from different tables or passages of the source.

How the values were obtained:
Assay type in all cases: in vitro ADME
P-gp = assay: Bidirectional transport of digoxin across monolayers with and without zosuquidar; settings: human, n = 3, read-out: efflux ratio Papp(B-L)/Papp(L-B)
Description: (§1) All transport assays were performed by adding LY ([…]) and the drug to the luminal or basal reservoirs of the monolayer (n = 3). Samples were collected after 3 h. LY was added to ensure that monolayer integrity remained intact throughout the assay. Additionally, TEER was measured before and after the assay to further verify that monolayer integrity remained constant throughout the assay. Monolayers with a TEER > 90 Ω cm^2 or 300 Ω cm^2 were used for the gradient cross-linked scaffold and conventional scaffold, respectively. […] Zosuquidar and Ko143 were added to inhibit digoxin transport and prazosin transport, respectively, 2.5 h after addition of the substrate. Samples were collected 30 min after inhibitor addition for a totally assay time of 3 h.
The concentration of the drug in the collected sample was determined using HPLC-triple quadrupole mass spectrometry (LC-MS/MS, PE Sciex API 3000, AB Sciex) with multiple reaction monitoring (MRM). A C-18 analytical column with a linear gradient from 100% water with 1% formic acid to 80% acetonitrile with 1% formic acid over 8 min (0.3 mL/min) was used for the separation. […] Digitoxin was used as an internal standard for digoxin samples. Doxasozin was used an internal standard for prazosin samples. All internal standards were added to samples just prior to LC-MS/MS analysis. […] Sample concentrations were quantified using the standard curve and normalized to the signal of the appropriate internal standard. The drug apparent permeability was calculated according to the following equation: Papp = (V/(A x Ci)) x (Cf/T) where V is the volume of the basal chamber (mL), A is the area of epithelial layer (cm^2), Ci is the initial concentration of the molecule (nM), Cf is the final concentration of the drug, and T is the assay time (s). The average Papp with a single standard deviation is shown (average ± SD). The efflux ratio was calculated according to the following equation: Efflux Ratio = Papp(B-L)/Papp(L-B).

BCRP = target: T1, BCRP (Homo sapiens, UniProt Q9UNQ0); assay: Bidirectional transport of prazosin across monolayers with and without Ko143; settings: gradient cross-linked scaffold
T1 construct: endogenous in cells; host or cells: primary human small intestinal epithelial cell monolayers on a gradient cross-linked or conventional collagen scaffold
T1 sequence (Q9UNQ0 1-655): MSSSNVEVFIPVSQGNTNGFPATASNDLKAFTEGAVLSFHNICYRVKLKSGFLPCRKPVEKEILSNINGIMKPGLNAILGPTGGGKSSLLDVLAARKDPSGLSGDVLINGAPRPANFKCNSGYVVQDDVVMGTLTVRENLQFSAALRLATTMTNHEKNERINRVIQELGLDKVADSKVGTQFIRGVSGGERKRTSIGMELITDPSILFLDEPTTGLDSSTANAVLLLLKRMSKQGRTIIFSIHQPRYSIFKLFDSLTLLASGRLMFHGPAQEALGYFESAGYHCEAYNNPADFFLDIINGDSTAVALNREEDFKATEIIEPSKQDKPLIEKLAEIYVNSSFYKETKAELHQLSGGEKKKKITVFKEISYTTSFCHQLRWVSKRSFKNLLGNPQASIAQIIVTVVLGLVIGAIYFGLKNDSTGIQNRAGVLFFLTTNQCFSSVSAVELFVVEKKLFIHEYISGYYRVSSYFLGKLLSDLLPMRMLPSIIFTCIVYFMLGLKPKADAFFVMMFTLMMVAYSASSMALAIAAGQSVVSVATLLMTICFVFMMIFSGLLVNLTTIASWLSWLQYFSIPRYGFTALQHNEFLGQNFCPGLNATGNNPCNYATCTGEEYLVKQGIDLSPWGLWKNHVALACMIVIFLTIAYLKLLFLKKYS
Description: as §1, with “Samples were collected 30 min after inhibitor addition for a totally assay time of 3 h.” left out
The concentration of the drug in the collected sample was determined using HPLC-triple quadrupole mass spectrometry (LC-MS/MS, PE Sciex API 3000, AB Sciex) with multiple reaction monitoring (MRM). […] Sample concentrations were quantified using the standard curve and normalized to the signal of the appropriate internal standard. The drug apparent permeability was calculated according to the following equation: Papp = (V/(A x Ci)) x (Cf/T) where V is the volume of the basal chamber (mL), A is the area of epithelial layer (cm^2), Ci is the initial concentration of the molecule (nM), Cf is the final concentration of the drug, and T is the assay time (s). […]

[1] = system: primary human small intestinal epithelial monolayers; assay: Monolayer integrity: permeability of LY and fluorescein-dextran through small intestinal epithelial monolayers; settings: monolayers on gradient cross-linked scaffold and on conventional scaffold; luminal to basal, 3 h; n = 3
Description: Neither LY nor fluorescein-dextran are transported by the intestinal epithelium. The TEER was measured using an EVOM^2 epithelial Volt/Ohm meter (World Precision Instruments, Sarasota, FL). The raw resistance measurements of the monolayers were subtracted from that of the average resistance (n = 3) of the collagen layer without cells and normalized by multiplying the cell culture area of the well to provide a TEER in units of Ω cm^2 [48]. The average TEER (n = 3) with a single standard deviation (SD) is shown (average ± SD). […] The amount of LY (ex: 428 nm, em: 520 nm) and fluorescein-dextran (ex: 490 nm, em: 520 nm) in the basal side was determined by measuring their fluorescence in a microplate reader (Spectramax M5, Molecular Devices Corporation, San Jose, CA). The luminal-to-basal apparent permeability (Papp) were calculated according to the following equation: […] The average Papp with a single standard deviation is shown (average ± SD).

How did the efflux ratio at 3 h (P-gp; conventional scaffold, no inhibitor) turn out when C[C@H]1O[C@@H](O[C@H]2[C@@H](O)C[C@H](O[C@H]3[C@@H](O)C[C@H](O[C@H]4CC[C@@]5(C)[C@H](CC[C@@H]6[C@@H]5C[C@@H](O)[C@]5(C)[C@@H](C7=CC(=O)OC7)CC[C@]65O)C4)O[C@@H]3C)O[C@@H]2C)C[C@H](O)[C@@H]1O [digoxin] was run?
Its efflux ratio at 3 h is 2.3.

And the efflux ratio at 3 h (P-gp; gradient cross-linked scaffold, no inhibitor)?
Its efflux ratio at 3 h is 2.7.

What about the efflux ratio at 3 h (P-gp; with zosuquidar (concentration not stated), conventional scaffold, in the presence of P-gp inhibitor zosuquidar) of the same compound?
Its efflux ratio at 3 h is 1.4.

What about the efflux ratio at 3 h (P-gp; with zosuquidar (concentration not stated), gradient cross-linked scaffold, in the presence of P-gp inhibitor zosuquidar) of the same compound?
Its efflux ratio at 3 h is 1.4.

Which results are given for COc1cc2nc(N3CCN(C(=O)c4ccco4)CC3)nc(N)c2cc1OC [prazosin]?
efflux ratio at 3 h (BCRP; no inhibitor, read-out: efflux ratio Papp(B-L)/Papp(L-B)): 6.5; efflux ratio at 3 h (BCRP; with Ko143 (concentration not stated), with BCRP inhibitor Ko143, read-out: efflux ratio Papp(B-L)/Papp(L-B)): 1.7

Lucifer yellow [LY] was tested. Which “permeability through confluent, differentiated monolayers” value [1] did it give?
The value was “low”.
